Our source for the EC50 values is patent US9517227B2, “Dihydropyrazoles” (Merck Patent GmbH, priority 2011, dated 2016).

What is called EC50 is the concentration giving half of the maximal effect.

The target of assay [1] is T1, follicle-stimulating hormone (FSH) receptor (Rattus norvegicus, UniProt P20395).
T1 construct: endogenous in cells; host or cells: rat granulosa cells
T1 sequence (P20395 18-692): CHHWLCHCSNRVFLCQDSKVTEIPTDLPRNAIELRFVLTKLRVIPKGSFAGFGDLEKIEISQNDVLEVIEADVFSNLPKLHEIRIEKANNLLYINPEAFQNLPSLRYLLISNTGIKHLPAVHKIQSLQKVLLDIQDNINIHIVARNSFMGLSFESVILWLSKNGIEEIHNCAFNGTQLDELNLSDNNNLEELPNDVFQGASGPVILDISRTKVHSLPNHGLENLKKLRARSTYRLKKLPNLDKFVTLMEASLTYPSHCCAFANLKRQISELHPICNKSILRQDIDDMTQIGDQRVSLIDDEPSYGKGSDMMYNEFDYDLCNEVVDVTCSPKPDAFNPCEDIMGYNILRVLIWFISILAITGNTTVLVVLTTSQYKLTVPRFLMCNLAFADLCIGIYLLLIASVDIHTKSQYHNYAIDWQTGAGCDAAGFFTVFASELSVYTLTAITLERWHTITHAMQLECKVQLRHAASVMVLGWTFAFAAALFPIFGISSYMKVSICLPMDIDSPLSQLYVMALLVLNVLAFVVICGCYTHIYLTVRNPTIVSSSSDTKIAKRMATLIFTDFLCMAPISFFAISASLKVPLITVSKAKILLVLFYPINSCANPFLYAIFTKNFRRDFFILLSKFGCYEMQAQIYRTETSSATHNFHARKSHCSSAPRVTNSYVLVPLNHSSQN
Put plainly: Rat granulosa EC50 FSH (Assay B). The following applies: rat granulosa cells, per Yanofsky et al. 2006. The format is cell-based. As to the method: Rat Granulosa EC50 FSH (Assay B)
The assay was performed pursuant to the teaching of Yanofsky et al. (2006) Allosteric activation of the follicle-stimulating hormone (FSH) receptor by selective, nonpeptide agonists. JBC 281(19): 13226-13233, which is incorporated by reference in the disclosure of the invention.

The target of a further assay is T2, FSHR (Homo sapiens, UniProt P23945).
T2 construct: expressed in transfected cells; host or cells: CHO (Cho-FSHR-LUC-1-1-43)
T2 sequence (P23945 18-695): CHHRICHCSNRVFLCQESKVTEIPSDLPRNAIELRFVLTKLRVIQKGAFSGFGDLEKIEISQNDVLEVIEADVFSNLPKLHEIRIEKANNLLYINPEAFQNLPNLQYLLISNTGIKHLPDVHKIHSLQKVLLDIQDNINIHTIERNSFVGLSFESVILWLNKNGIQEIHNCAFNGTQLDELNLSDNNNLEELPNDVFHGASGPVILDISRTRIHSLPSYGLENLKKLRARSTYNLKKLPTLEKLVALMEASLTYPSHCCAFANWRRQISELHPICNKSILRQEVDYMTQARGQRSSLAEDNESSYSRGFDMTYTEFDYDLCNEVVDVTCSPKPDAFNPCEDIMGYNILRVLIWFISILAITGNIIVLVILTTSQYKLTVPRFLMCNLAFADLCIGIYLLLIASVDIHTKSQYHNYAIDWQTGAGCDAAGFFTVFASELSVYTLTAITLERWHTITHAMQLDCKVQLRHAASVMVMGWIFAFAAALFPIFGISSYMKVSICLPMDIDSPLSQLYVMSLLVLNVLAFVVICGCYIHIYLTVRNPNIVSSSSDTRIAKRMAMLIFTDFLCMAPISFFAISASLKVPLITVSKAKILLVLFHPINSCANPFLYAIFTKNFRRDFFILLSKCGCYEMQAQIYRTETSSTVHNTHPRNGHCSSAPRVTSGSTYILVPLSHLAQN
Briefly: EC50 of cyclic AMP production in CHO FSHR cells + EC20 FSH (Assay A). Type of assay: cell-based. Conditions: CHO-FSHR-LUC cells, 0.265 pM FSH (EC20), cAMP HTRF, 1 h. As to the method:
EC50 of Cyclic AMP Production in CHO FSHR Cells+EC20 FSH (Assay A)
2500 Cho-FSHR-LUC-1-1-43 cells were plated per well in 5 μl of phenol red free DMEM/F12+1% FBS. Cells were plated in 384 well, solid white low volume plates (Greiner 784075) by Multidrop. Cells were assayed by adding 100 μl of 2×EC20 FSH/IBMX in DMEM/F12+0.1% BSA) by Multidrop to 2 μl of test compound stamped in 384 well plates (compounds are diluted 1:50). The final FSH concentration was 0.265 pM, and the final IBMX concentration was 200 μM. The compound plate map was as follows: Column 1: 2 μl of DMSO; Column 2: 2 μl of DMSO; Columns 3-12 and 13-24: 2 μl of test compound, diluted 1:4 in 100% DMSO, or 2 μl of FSH, diluted 1:4 in DMEM/F12+0.1% BSA. The starting concentration for FSH was 50 nM (final concentration was 0.5 nM). Furthermore, Column 23 contained 2 μl of EC100 FSH reference (100×) (diluted in DMEM/F12+0.1% BSA) at a final concentration of 0.5 nM, and Column 24 contained 2 μl of 1 mM AS707664/2 reference compound 2. 5 μl of compound+EC20 FSH mixture were transferred to cell plates (1:2 dilution into 5 μl of cell media). The plates were incubated at 37° C. for 1 h. 10 μl of mixed HTRF (CisBio #62AM4PEC) reagents were added per well and incubated at room temperature for 1 h. The plates were read on Envision using the cAMP HTRF—low volume 384 well protocol. The readout was the calculated fluorescence ratio (665 nm/620 nm).
A general note: In TR-FRET formats the signal depends on donor and acceptor labels being close together.

In the case of `COc1ccc(C2=NN(C(=O)c3ccc4c(c3)OCO4)CC2)cc1OC` [Compound 3], the values for the EC50 (in assay [1]; at FSHR) were 656 nM and 40300 nM, respectively.
As to `COc1ccc(C2=NN(C(=O)c3ccc(Oc4ccccc4)cc3)C(C)(C)C2)cc1OC` [Compound 230, [3-(3,4-Dimethoxy-phenyl)-5,5-dimethyl-4,5-dihydro-pyrazol-1-yl]-(4-phenoxy-phenyl)-methanone], the 50% effective concentration (EC50) in assay [1] is 128 nM; on FSHR, 2200 nM.
Turning to `COc1ccc(C2=NN(C(=O)c3cccc(F)c3F)CC2)cc1OC` [Compound 77], the EC50 in assay [1] came out at 729 nM; on FSHR, 8610 nM.
In the same order, the values of `COc1ccc(C2=NN(C(=O)c3cccc(C(F)(F)F)c3)CC2)cc1OC` [Compound 64] are 348 nM and 11000 nM.
In the case of `COc1ccc(C2=NN(C(=O)c3cccc(Br)c3)C(C)(C)C2)cc1OC` [Compound 233, (3-Bromo-phenyl)-[3-(3,4-dimethoxy-phenyl)-5,5-dimethyl-4,5-dihydro-pyrazol-1-yl]-methanone], the values for the concentration giving a half-maximal response (EC50) (in assay [1]; on FSHR) were 216 nM and 27800 nM, respectively.
In the same order, the values of `COc1ccc(C2=NN(C(=O)c3cccc(OC(C)(F)F)c3)CC2)cc1OC` [Compound 67] are 814 nM and 21000 nM.
For the compound `COc1ccc(C2=NN(C(=O)c3cccc(C)c3)C(C)(C)C2)cc1OC` [Compound 232, [3-(3,4-Dimethoxy-phenyl)-5,5-dimethyl-4,5-dihydro-pyrazol-1-yl]-m-tolyl-methanone], the EC50 in assay [1] is 572 nM; on FSHR it was 38700 nM.
Turning to `COc1ccc(C2=NN(C(=O)c3cccc(Oc4ccccc4)c3)CC2)cc1OC` [Compound 70], the EC50 worked out at 110 nM in assay [1] and 39000 nM at FSHR.
Taken in the same sequence, the figures for `COc1ccc(C2=NN(C(=O)c3cccc(F)c3)C(C)(C)C2)cc1OC` [Compound 129, [3-(3,4-Dimethoxy-phenyl)-5,5-dimethyl-4,5-dihydro-pyrazol-1-yl]-(3-fluoro-phenyl)-methanone] were 363 nM and 35000 nM.
In the same order, the values of `COc1ccc(C2=NN(C(=O)Cc3cccc(F)c3)CC2)cc1OC` [Compound 241, 1-[3-(3,4-Dimethoxy-phenyl)-4,5-dihydro-pyrazol-1-yl]-2-(3-fluoro-phenyl)-ethanone] are 342 nM and 31000 nM.
Taken in the same sequence, the figures for `COc1ccc(C2=NN(C(=O)c3ccc(F)c(C(F)(F)F)c3)C(C)(C)C2)cc1OC` [Compound 236, [3-(3,4-Dimethoxy-phenyl)-5,5-dimethyl-4,5-dihydro-pyrazol-1-yl]-(4-fluoro-3-trifluoromethyl-phenyl)-methanone] were 1730 nM and 25300 nM.
As for `COc1ccc(C2=NN(C(=O)c3cccc(Cl)c3)CC2)cc1OC` [Compound 62], the half-maximal effective concentration (EC50) in assay [1] came to 98.1 nM; at FSHR, 6490 nM.
Take `COc1ccc(C2=NN(C(=O)c3ccc(C)cc3)C(C)(C)C2)cc1OC` [Compound 235, [3-(3,4-Dimethoxy-phenyl)-5,5-dimethyl-4,5-dihydro-pyrazol-1-yl]-p-tolyl-methanone]: the half-maximal effective concentration (EC50) worked out at 538 nM in assay [1] and 35700 nM on FSHR.
In the case of `COc1ccc(C2=NN(C(=O)c3cccc(C#N)c3)C(C)(C)C2)cc1OC` [Compound 132, 3-[3-(3,4-Dimethoxy-phenyl)-5,5-dimethyl-4,5-dihydro-pyrazole-1-carbonyl]-benzonitrile], the values for the EC50 (in assay [1]; on FSHR) were 25 nM and 41500 nM, respectively.
For `COc1ccc(C2=NN(C(=O)c3ccc(F)c(Cl)c3)C(C)(C)C2)cc1OC` [Compound 237, (3-Chloro-4-fluoro-phenyl)-[3-(3,4-dimethoxy-phenyl)-5,5-dimethyl-4,5-dihydro-pyrazol-1-yl]-methanone], the figures for the EC50 (in assay [1]; on FSHR) were 598 nM and 35000 nM, respectively.
Consider `COc1ccc(C2=NN(C(=O)c3cccc(Br)c3)CC2)cc1OC` [Compound 61], for which the EC50 turned out to be 465 nM in assay [1] and 9750 nM at FSHR.
For the compound `COc1ccc(C2=NN(C(=O)c3ccc4c(c3)OCO4)C(C)(C)C2)cc1OC` [Compound 131, [1,3]Dioxol-5-yl-[3-(3,4-dimethoxy-phenyl)-5,5-dimethyl-4,5-dihydro-pyrazol-1-yl]-methanone], the EC50 in assay [1] amounted to 413 nM; at FSHR it was 23000 nM.
With `COc1ccc(C2=NN(C(=O)c3cc(F)c(F)c(F)c3F)CC2)cc1OC` [Compound 80], the concentration giving a half-maximal response (EC50) in assay [1] stood at 1190 nM; at FSHR it was 28000 nM.
In the same order, the values of `COc1ccc(C2=NN(C(=O)c3ccc(C)c(F)c3)CC2)cc1OC` [Compound 136] are 106 nM and 30000 nM.
